Reference: paper PMC7722354, “7-Substituted 2-Nitro-5,6-dihydroimidazo[2,1-b][1,3]oxazines: Novel Antitubercular Agents Lead to a New Preclinical Candidate for Visceral Leishmaniasis” (Journal of Medicinal Chemistry, 2017)
In brackets after ≈: the same amount, converted by molar mass.

Columns and labels:
[1] = test system: M. tb, strain H37Rv; assay: LORA minimum inhibitory concentration assay (hypoxic); type: cell-based; details: Mycobacterium tuberculosis
[2] = test system: Leishmania donovani; assay: L. don amastigote mouse macrophage-based luciferase assay (CDRI); type: cell-based; details: in mouse macrophages, single test (CDRI)
[3] = test system: human lung fibroblasts (MRC-5 cells); assay: cytotoxicity toward MRC-5 cells (LMPH); type: cell-based; details: MRC5
[4] = test system: Leishmania infantum; assay: L. inf growth inhibition in mouse macrophages (LMPH); type: cell-based; details: Macrophage, mean of at least two determinations
[5] = test system: Trypanosoma cruzi; assay: T. cruzi growth inhibition on MRC-5 cells (LMPH); type: cell-based; details: MRC5
[6] = test system: M. tb, strain H37Rv; assay: MABA minimum inhibitory concentration assay (aerobic); type: cell-based, Mycobacterium tuberculosis; details: aerobic, read-out: MIC MABA
[7] = test system: L. donovani; assay: acute VL infection assay (L. don mouse model, LSHTM); details: Leishmania donovani, po, 120 h; 50 mg/kg orally once daily 5 days; liver parasite burden; read-out: in vivo efficacy against L. don (mouse), % inhibition
[8] = kinetic aqueous solubility (Method A); type: physicochemical; details: water, pH 7, kinetic, water (pH 7), 20 °C; read-out: aq solubility pH 7
[9] = Mycobacterium tuberculosis, H37RV

Row | Compound | MIC [1] [µM] | IC50 [2] [nM] | IC50 [3] [nM] | IC50 [4] [nM] | IC50 [5] [nM] | MIC [6, 9] [µM] | inhibition in vivo at 50 mg/kg [7] [%] | solubility at 15 min [8] [µg/mL] | MIC [6] [µM]
1 | O=[N+]([O-])c1cn2c(n1)OC(COc1cccc(-c3ccc(F)nc3F)n1)CC2 (stereo not shown) [compound 119] | 10 (≈ 3.89 µg/mL) | 250 | > 64000 | 6700 | 130 | 4.3 (≈ 1.67 µg/mL) |  |  | 
2 | O=[N+]([O-])c1cn2c(n1)OC(COc1ccc(-c3ccc(F)cc3)nn1)CC2 (stereo not shown) [compound 123] | 23 (≈ 8.54 µg/mL) | 70 | > 64000 | 8400 | 670 | 0.35 (≈ 0.13 µg/mL) |  |  | 
3 | O=[N+]([O-])c1cn2c(n1)OC(COc1cnc(-c3ccc(F)cc3)cn1)CC2 (stereo not shown) [compound 126] | > 128 | 150 | > 64000 | 710 | 4700 | 0.15 (≈ 0.0557 µg/mL) |  |  | 
4 | O=[N+]([O-])c1cn2c(n1)OC(COc1ncc(-c3ccc(F)cc3)cn1)CC2 (stereo not shown) [compound 129] | 1.7 (≈ 0.631 µg/mL) | 100 | > 64000 | 290 | 170 | 0.02 to 0.04 (≈ 0.00743 to 0.0149 µg/mL) | 85 | 1.8 (≈ 4.85 µM) | 0.04 (≈ 0.0149 µg/mL)
5 | CC1(COc2ncc(-c3ccc(F)cc3)cn2)CCn2cc([N+](=O)[O-])nc2O1 (stereo not shown) [compound 131] | 6.3 (≈ 2.43 µg/mL) | 320 | 57000 | 290 | 430 | 0.44 (≈ 0.17 µg/mL) |  |  | 
6 | O=[N+]([O-])c1cn2c(n1)OC(COc1ncc(-c3ccc(F)nc3)cn1)CC2 (stereo not shown) [compound 132] | 21 (≈ 7.82 µg/mL) | 530 | > 64000 | > 64000 | 3300 | 0.24 (≈ 0.0894 µg/mL) |  |  | 
7 | CC1(COc2ncc(-c3ccc(F)nc3)cn2)CCn2cc([N+](=O)[O-])nc2O1 (stereo not shown) [compound 133] | 54 (≈ 20.9 µg/mL) | 1300 | > 64000 | 6100 | 2900 | 23 (≈ 8.89 µg/mL) |  |  | 
8 | O=[N+]([O-])c1cn2c(n1)OC(COc1cnc(-c3ccc(F)cc3)nc1)CC2 (stereo not shown) [compound 139] | 20 (≈ 7.43 µg/mL) | 70 | 62000 | 210 | 260 | 0.27 (≈ 0.1 µg/mL) |  | 0.59 (≈ 1.59 µM) | 
9 | CC1(CN2CCN(c3ccc(F)cc3)CC2)CCn2cc([N+](=O)[O-])nc2O1 (stereo not shown) [compound 144] | 6.8 (≈ 2.55 µg/mL) | 700 | > 64000 | 730 | 1300 | 0.34 (≈ 0.128 µg/mL) |  |  | 
10 | O=[N+]([O-])c1cn2c(n1)OC(CN1CCC(c3ccc(F)cc3)CC1)CC2 (stereo not shown) [compound 147] | 11 (≈ 3.96 µg/mL) | 880 | > 64000 | 870 | 2900 | 2.1 (≈ 0.757 µg/mL) |  |  | 
11 | CC1(CN2CCC(c3ccc(F)cc3)CC2)CCn2cc([N+](=O)[O-])nc2O1 (stereo not shown) [compound 149] | 8.3 (≈ 3.11 µg/mL) | 1000 | > 64000 | 320 | 870 | 0.22 (≈ 0.0824 µg/mL) |  |  | 
12 | CC1(CN2CCC(Oc3ccc(F)cc3)CC2)CCn2cc([N+](=O)[O-])nc2O1 (stereo not shown) [compound 154] | 48 (≈ 18.7 µg/mL) | 220 | > 64000 | 320 | 590 | 0.23 (≈ 0.0898 µg/mL) |  |  | 
13 | O=C(c1ccc(F)cc1)N1CCN(CC2CCn3cc([N+](=O)[O-])nc3O2)CC1 (stereo not shown) [compound 157] | > 128 | 4800 | > 64000 | 45000 | 11000 | 46 (≈ 17.9 µg/mL) |  |  | 
14 | CC1(CN2CCN(C(=O)c3ccc(F)cc3)CC2)CCn2cc([N+](=O)[O-])nc2O1 (stereo not shown) [compound 159] | > 128 | 2800 | > 64000 | 6500 | 2800 | 93 (≈ 37.5 µg/mL) |  |  | 
15 | O=C(OCC1CCn2cc([N+](=O)[O-])nc2O1)N1CCN(c2ccc(F)cc2)CC1 (stereo not shown) [compound 160, (2-Nitro-6,7-dihydro-5H-imidazo[2,1-b][1,3]oxazin-7-yl)methyl 4-(4-fluorophenyl)-piperazine-1-carboxylate] | 22 (≈ 8.92 µg/mL) | > 100000 | > 64000 | > 64000 | 1500 | 2.5 (≈ 1.01 µg/mL) |  |  | 
16 | CC1(COC(=O)N2CCN(c3ccc(F)cc3)CC2)CCn2cc([N+](=O)[O-])nc2O1 (stereo not shown) [compound 161] | 8.4 (≈ 3.52 µg/mL) | 290 | > 64000 | 720 | 3900 | 3.4 (≈ 1.43 µg/mL) |  |  | 
